{"source": "patent US9738634B2", "about": "“Heterocyclic amide compound and herbicide” (SYNGENTA PARTICIPATIONS AG, priority 2013, dated 2017)", "type_in_all_cases": "in vivo", "key": {"barnyard grass [1]": {"test_system": "barnyard grass", "assay": "Test Example 1: weedkilling efficacy, preemergent weed treatment in the submerged state; A: barnyard grass", "settings": "treatment dosage 252 g/ha", "in_short": "(§1)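 Alluvial soil in Wagner pots flooded to 4 cm; barnyard grass, bulrush and oval-leafed pondweed seeds sown, then 2.5-leaf rice seedlings transplanted. Same day, emulsified compound diluted in water to set g/ha dosages and applied to water surface; greenhouse 25–30 °C, effect scored by criteria after 3 weeks.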"}, "bulrush [2]": {"test_system": "bulrush", "assay": "Test Example 1: weedkilling efficacy, preemergent weed treatment in the submerged state; B: bulrush", "settings": "treatment dosage 252 g/ha", "in_short": "as §1"}, "oval-leafed pondweed [3]": {"test_system": "oval-leafed pondweed", "assay": "Test Example 1: weedkilling efficacy, preemergent weed treatment in the submerged state; C: oval-leafed pondweed", "settings": "treatment dosage 252 g/ha", "in_short": "as §1"}, "transplanted rice": {"test_system": "transplanted rice", "assay": "Test Example 1: preemergent weed treatment in the submerged state, effect on crop; a: transplanted rice", "settings": "treatment dosage 252 g/ha", "in_short": "as §1"}, "barnyard grass [4]": {"test_system": "barnyard grass", "assay": "Test Example 2: weedkilling efficacy, growth period weed treatment in the submerged state; A: barnyard grass", "settings": "treatment dosage 252 g/ha", "in_short": "(§2)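 First, alluvial soil in pots is flooded to 4 cm and mixed seed is sown. Next, plants grow in a greenhouse at 25 to 30° C until the 1-2 leaf stage. Then diluted emulsion is applied onto the water surface at the given g/ha rate, and injury is assessed after 3 weeks.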"}, "bulrush [5]": {"test_system": "bulrush", "assay": "Test Example 2: weedkilling efficacy, growth period weed treatment in the submerged state; B: bulrush", "settings": "treatment dosage 252 g/ha", "in_short": "as §2"}, "oval-leafed pondweed [6]": {"test_system": "oval-leafed pondweed", "assay": "Test Example 2: weedkilling efficacy, growth period weed treatment in the submerged state; C: oval-leafed pondweed", "settings": "treatment dosage 252 g/ha", "in_short": "as §2"}, "crabgrass [7]": {"test_system": "crabgrass", "assay": "Test Example 3: weedkilling efficacy through soil treatment; D: crabgrass", "settings": "treatment dosage 315 g/ha", "in_short": "(§3)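 Crop and weed responses were judged three weeks after a uniform surface spray of the water-diluted emulsion at the given g/ha rate. Seeds sat beneath about 1.5 cm of sterilized diluvial soil, and boxes stood in a greenhouse at 25 to 30° C.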"}, "green foxtail [8]": {"test_system": "green foxtail", "assay": "Test Example 3: weedkilling efficacy through soil treatment; E: green foxtail", "settings": "treatment dosage 315 g/ha", "in_short": "as §3"}, "wild oat [9]": {"test_system": "wild oat", "assay": "Test Example 3: weedkilling efficacy through soil treatment; G: wild oat", "settings": "treatment dosage 315 g/ha", "in_short": "as §3"}, "black-grass [10]": {"test_system": "black-grass", "assay": "Test Example 3: weedkilling efficacy through soil treatment; H: black-grass", "settings": "treatment dosage 315 g/ha", "in_short": "as §3"}, "Italian ryegrass [11]": {"test_system": "Italian ryegrass", "assay": "Test Example 3: weedkilling efficacy through soil treatment; I: Italian ryegrass", "settings": "treatment dosage 315 g/ha", "in_short": "as §3"}, "Indian mallow [12]": {"test_system": "Indian mallow", "assay": "Test Example 3: weedkilling efficacy through soil treatment; K: Indian mallow", "settings": "treatment dosage 315 g/ha", "in_short": "as §3"}, "redroot pigweed [13]": {"test_system": "redroot pigweed", "assay": "Test Example 3: weedkilling efficacy through soil treatment; L: redroot pigweed", "settings": "treatment dosage 315 g/ha", "in_short": "as §3"}, "fig-leafed goosefoot [14]": {"test_system": "fig-leafed goosefoot", "assay": "Test Example 3: weedkilling efficacy through soil treatment; M: fig-leafed goosefoot", "settings": "treatment dosage 315 g/ha", "in_short": "as §3"}, "chickweed [15]": {"test_system": "chickweed", "assay": "Test Example 3: weedkilling efficacy through soil treatment; N: chickweed", "settings": "treatment dosage 315 g/ha", "in_short": "as §3"}, "catchweed [16]": {"test_system": "catchweed", "assay": "Test Example 3: weedkilling efficacy through soil treatment; O: catchweed", "settings": "treatment dosage 315 g/ha", "in_short": "as §3"}, "birds-eye speedwell": {"test_system": "birds-eye speedwell", "assay": "Test Example 3: weedkilling efficacy through soil treatment; p: birds-eye speedwell", "settings": "treatment dosage 315 g/ha", "in_short": "as §3"}, "directly sown rice [17]": {"test_system": "directly sown rice", "assay": "Test Example 3: soil treatment, effect on crop; b: directly sown rice", "settings": "treatment dosage 315 g/ha", "in_short": "as §3"}, "corn [18]": {"test_system": "corn", "assay": "Test Example 3: soil treatment, effect on crop; c: corn", "settings": "treatment dosage 315 g/ha", "in_short": "as §3"}, "soybean [19]": {"test_system": "soybean", "assay": "Test Example 3: soil treatment, effect on crop; d: soybean", "settings": "treatment dosage 315 g/ha", "in_short": "as §3"}, "wheat [20]": {"test_system": "wheat", "assay": "Test Example 3: soil treatment, effect on crop; e: wheat", "settings": "treatment dosage 315 g/ha", "in_short": "as §3"}, "beet [21]": {"test_system": "beet", "assay": "Test Example 3: soil treatment, effect on crop; f: beet", "settings": "treatment dosage 315 g/ha", "in_short": "as §3"}, "crabgrass [22]": {"test_system": "crabgrass", "assay": "Test Example 4: weedkilling efficacy by foliar treatment; D: crabgrass", "settings": "treatment dosage 315 g/ha", "in_short": "(§4)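 Seeds are spot-sown into sterilized diluvial soil and covered with about 1.5 cm of soil. After 14 days' greenhouse growth at 25 to 30° C, plants are sprayed on stems and leaves with diluted emulsion at the stated g/ha rate, then scored at 3 weeks.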"}, "green foxtail [23]": {"test_system": "green foxtail", "assay": "Test Example 4: weedkilling efficacy by foliar treatment; E: green foxtail", "settings": "treatment dosage 315 g/ha", "in_short": "as §4"}, "wild oat [24]": {"test_system": "wild oat", "assay": "Test Example 4: weedkilling efficacy by foliar treatment; G: wild oat", "settings": "treatment dosage 315 g/ha", "in_short": "as §4"}, "black-grass [25]": {"test_system": "black-grass", "assay": "Test Example 4: weedkilling efficacy by foliar treatment; H: black-grass", "settings": "treatment dosage 315 g/ha", "in_short": "as §4"}, "Italian ryegrass [26]": {"test_system": "Italian ryegrass", "assay": "Test Example 4: weedkilling efficacy by foliar treatment; I: Italian ryegrass", "settings": "treatment dosage 315 g/ha", "in_short": "as §4"}, "Indian mallow [27]": {"test_system": "Indian mallow", "assay": "Test Example 4: weedkilling efficacy by foliar treatment; K: Indian mallow", "settings": "treatment dosage 315 g/ha", "in_short": "as §4"}, "redroot pigweed [28]": {"test_system": "redroot pigweed", "assay": "Test Example 4: weedkilling efficacy by foliar treatment; L: redroot pigweed", "settings": "treatment dosage 315 g/ha", "in_short": "as §4"}, "fig-leafed goosefoot [29]": {"test_system": "fig-leafed goosefoot", "assay": "Test Example 4: weedkilling efficacy by foliar treatment; M: fig-leafed goosefoot", "settings": "treatment dosage 315 g/ha", "in_short": "as §4"}, "chickweed [30]": {"test_system": "chickweed", "assay": "Test Example 4: weedkilling efficacy by foliar treatment; N: chickweed", "settings": "treatment dosage 315 g/ha", "in_short": "as §4"}, "catchweed [31]": {"test_system": "catchweed", "assay": "Test Example 4: weedkilling efficacy by foliar treatment; O: catchweed", "settings": "treatment dosage 315 g/ha", "in_short": "as §4"}, "directly sown rice [32]": {"test_system": "directly sown rice", "assay": "Test Example 4: foliar treatment, effect on crop; b: directly sown rice", "settings": "treatment dosage 315 g/ha", "in_short": "as §4"}, "corn [33]": {"test_system": "corn", "assay": "Test Example 4: foliar treatment, effect on crop; c: corn", "settings": "treatment dosage 315 g/ha", "in_short": "as §4"}, "soybean [34]": {"test_system": "soybean", "assay": "Test Example 4: foliar treatment, effect on crop; d: soybean", "settings": "treatment dosage 315 g/ha", "in_short": "as §4"}, "wheat [35]": {"test_system": "wheat", "assay": "Test Example 4: foliar treatment, effect on crop; e: wheat", "settings": "treatment dosage 315 g/ha", "in_short": "as §4"}, "beet [36]": {"test_system": "beet", "assay": "Test Example 4: foliar treatment, effect on crop; f: beet", "settings": "treatment dosage 315 g/ha", "in_short": "as §4"}}, "data": [{"smiles": "CC1=C(c2ccccc2)C(=O)N(C(C)(C)C(=O)Nc2cc(C(F)(F)F)ccn2)CO1", "note": "[B-2-57]", "values": [{"measurement": "A (barnyard grass) weedkilling efficacy grade", "setting": "barnyard grass [1]", "value": "5 (weed kill ratio 90% or more, (practically complete withering))"}, {"measurement": "B (bulrush) weedkilling efficacy grade", "setting": "bulrush [2]", "value": "5 (weed kill ratio 90% or more, (practically complete withering))"}, {"measurement": "C (oval-leafed pondweed) weedkilling efficacy grade", "setting": "oval-leafed pondweed [3]", "value": "5 (weed kill ratio 90% or more, (practically complete withering))"}, {"measurement": "a (transplanted rice) effect on crop grade", "setting": "transplanted rice", "value": "4 (weed kill ratio 70% or more, less than 90%)"}, {"measurement": "A (barnyard grass) weedkilling efficacy grade", "setting": "barnyard grass [4]", "value": "5 (weed kill ratio 90% or more, (practically complete withering))"}, {"measurement": "B (bulrush) weedkilling efficacy grade", "setting": "bulrush [5]", "value": "5 (weed kill ratio 90% or more, (practically complete withering))"}, {"measurement": "C (oval-leafed pondweed) weedkilling efficacy grade", "setting": "oval-leafed pondweed [6]", "value": "5 (weed kill ratio 90% or more, (practically complete withering))"}, {"measurement": "D (crabgrass) weedkilling efficacy grade", "setting": "crabgrass [7]", "value": "5 (weed kill ratio 90% or more, (practically complete withering))"}, {"measurement": "E (green foxtail) weedkilling efficacy grade", "setting": "green foxtail [8]", "value": "5 (weed kill ratio 90% or more, (practically complete withering))"}, {"measurement": "G (wild oat) weedkilling efficacy grade", "setting": "wild oat [9]", "value": "5 (weed kill ratio 90% or more, (practically complete withering))"}, {"measurement": "H (black-grass) weedkilling efficacy grade", "setting": "black-grass [10]", "value": "5 (weed kill ratio 90% or more, (practically complete withering))"}, {"measurement": "I (Italian ryegrass) weedkilling efficacy grade", "setting": "Italian ryegrass [11]", "value": "5 (weed kill ratio 90% or more, (practically complete withering))"}, {"measurement": "K (Indian mallow) weedkilling efficacy grade", "setting": "Indian mallow [12]", "value": "5 (weed kill ratio 90% or more, (practically complete withering))"}, {"measurement": "L (redroot pigweed) weedkilling efficacy grade", "setting": "redroot pigweed [13]", "value": "5 (weed kill ratio 90% or more, (practically complete withering))"}, {"measurement": "M (fig-leafed goosefoot) weedkilling efficacy grade", "setting": "fig-leafed goosefoot [14]", "value": "4 (weed kill ratio 70% or more, less than 90%)"}, {"measurement": "N (chickweed) weedkilling efficacy grade", "setting": "chickweed [15]", "value": "4 (weed kill ratio 70% or more, less than 90%)"}, {"measurement": "O (catchweed) weedkilling efficacy grade", "setting": "catchweed [16]", "value": "5 (weed kill ratio 90% or more, (practically complete withering))"}, {"measurement": "P (birds-eye speedwell) weedkilling efficacy grade", "setting": "birds-eye speedwell", "value": "5 (weed kill ratio 90% or more, (practically complete withering))"}, {"measurement": "b (directly sown rice) effect on crop grade", "setting": "directly sown rice [17]", "value": "5 (weed kill ratio 90% or more, (practically complete withering))"}, {"measurement": "c (corn) effect on crop grade", "setting": "corn [18]", "value": "4 (weed kill ratio 70% or more, less than 90%)"}, {"measurement": "d (soybean) effect on crop grade", "setting": "soybean [19]", "value": "4 (weed kill ratio 70% or more, less than 90%)"}, {"measurement": "e (wheat) effect on crop grade", "setting": "wheat [20]", "value": "0 (weed kill ratio 5% or less (practically no effect))"}, {"measurement": "f (beet) effect on crop grade", "setting": "beet [21]", "value": "3 (weed kill ratio 40% or more, less than 70%)"}, {"measurement": "D (crabgrass) weedkilling efficacy grade", "setting": "crabgrass [22]", "value": "5 (weed kill ratio 90% or more, (practically complete withering))"}, {"measurement": "E (green foxtail) weedkilling efficacy grade", "setting": "green foxtail [23]", "value": "5 (weed kill ratio 90% or more, (practically complete withering))"}, {"measurement": "G (wild oat) weedkilling efficacy grade", "setting": "wild oat [24]", "value": "5 (weed kill ratio 90% or more, (practically complete withering))"}, {"measurement": "H (black-grass) weedkilling efficacy grade", "setting": "black-grass [25]", "value": "5 (weed kill ratio 90% or more, (practically complete withering))"}, {"measurement": "I (Italian ryegrass) weedkilling efficacy grade", "setting": "Italian ryegrass [26]", "value": "5 (weed kill ratio 90% or more, (practically complete withering))"}, {"measurement": "K (Indian mallow) weedkilling efficacy grade", "setting": "Indian mallow [27]", "value": "5 (weed kill ratio 90% or more, (practically complete withering))"}, {"measurement": "L (redroot pigweed) weedkilling efficacy grade", "setting": "redroot pigweed [28]", "value": "5 (weed kill ratio 90% or more, (practically complete withering))"}, {"measurement": "M (fig-leafed goosefoot) weedkilling efficacy grade", "setting": "fig-leafed goosefoot [29]", "value": "3 (weed kill ratio 40% or more, less than 70%)"}, {"measurement": "N (chickweed) weedkilling efficacy grade", "setting": "chickweed [30]", "value": "3 (weed kill ratio 40% or more, less than 70%)"}, {"measurement": "O (catchweed) weedkilling efficacy grade", "setting": "catchweed [31]", "value": "5 (weed kill ratio 90% or more, (practically complete withering))"}, {"measurement": "b (directly sown rice) effect on crop grade", "setting": "directly sown rice [32]", "value": "5 (weed kill ratio 90% or more, (practically complete withering))"}, {"measurement": "c (corn) effect on crop grade", "setting": "corn [33]", "value": "5 (weed kill ratio 90% or more, (practically complete withering))"}, {"measurement": "d (soybean) effect on crop grade", "setting": "soybean [34]", "value": "4 (weed kill ratio 70% or more, less than 90%)"}, {"measurement": "e (wheat) effect on crop grade", "setting": "wheat [35]", "value": "1 (weed kill ratio 5% or more, less than 20%)"}, {"measurement": "f (beet) effect on crop grade", "setting": "beet [36]", "value": "3 (weed kill ratio 40% or more, less than 70%)"}]}]}
